Results as given in publication PMC9408991, “Antitumor Effects of a New Retinoate of the Fungal Cytotoxin Illudin M in Brain Tumor Models” (International Journal of Molecular Sciences, 2022).
Like-named read-outs stand apart in the source and are kept apart here.

Columns and labels:
[1] = test system: KBv1^+Vbl cervix carcinoma cells; assay: MTT cell viability assay, KBv1+Vbl cervix carcinoma; assay type: cell-based; conditions: Homo sapiens, KB-V1/Vbl, read-out: Inhibitory concentration IC50
Procedure: (§1) 518A2 (Department of Radiotherapy, Medical University of Vienna, Vienna, Austria) melanoma, KB-V1^Vbl (ACC-149) cervix carcinoma, MCF-7^Topo (ACC-115) breast carcinoma, HT29 (ACC-299) colon carcinoma were cultivated in Dulbecco’s Modified Eagle Medium (DMEM) supplemented with 10% fetal bovine serum and 1% antibiotic-antimycotic at 37 °C, 5% CO2, and 95% humidity. To keep MCF-7^Topo and KB-V1^Vbl cells resistant, the maximum-tolerated doses of topotecan or vinblastine were added to the cell culture medium 24 h after every passage. The human HL60 leukemia cells were obtained from the German National Resource Center for Biological Material (DSMZ), Braunschweig. Neuroectodermal stem cells NE-4C (ATCC No. CRL-2925), primary mouse astrocytes, rat glioma C6 (ATCC No. CCL-107) and human glioma U87 (ATCC No. HTB-14) were used.
(§2) Non-GBM cells (5 × 10^4 cells/mL, 100 µL/well) were grown in 96-well plates for 24 h. […] After the addition of 12.5 µL of a 0.5% MTT solution in PBS, the cells were incubated for 3 h at 37 °C so that the water-soluble MTT could be converted to formazan crystals. Then, the plates were centrifuged (300× g, 5 min, 4 °C), the medium withdrawn, and the formazan dissolved in 25 µL of DMSO containing 10% sodium dodecylsulfate (SDS) and 0.6% acetic acid for at least 2 h at 37 °C. In the case of the HL60 cells, after 2 h, the precipitate of formazan crystals was redissolved in a 10% solution of SDS in DMSO containing 0.6% acetic acid.

[2] = test system: MCF-7^+Topo breast carcinoma cells; assay: MTT cell viability assay, MCF-7+Topo breast carcinoma; assay type: cell-based; conditions: Homo sapiens, MCF7/Topo, read-out: Inhibitory concentration IC50
Procedure: as §1, §2

[3] = test system: HT-29 colon carcinoma cells; assay: MTT cell viability assay, HT-29 colon carcinoma; assay type: cell-based; conditions: Homo sapiens, read-out: Inhibitory concentration IC50
Procedure: as §1, §2

[4] = test system: U251 glioblastoma cells; assay: MTT cell viability assay, U251 glioblastoma; assay type: cell-based; conditions: Homo sapiens, read-out: Inhibitory concentration IC50
Procedure: U251 (formerly known as U-373 MG; ECACC 09063001), Mz54 (CVCL_M406) human glioblastoma cell lines were cultured in DMEM+GlutaMax supplemented with 10% fetal bovine serum and 1% penicillin/streptomycin mixture. The human glioma cell line Mz54 was obtained from the Dept. of Neurosurgery, University Medical Centre, Johannes Gutenberg University Mainz, Germany, where this line was isolated from a recurrent grade IV glioblastoma. U251 and Mz54 cells were used in passages between 10 and 25 after re-authentication and 40 to 55 after culture establishment, respectively. Only mycoplasma-free cell cultures were used.
[…] Afterward, 10 µL of a 5 mg/mL MTT solution in PBS was added to the cells for 3 h at 37 °C. Then, the spheres were centrifuged shortly to collect the cells on the bottom of the plate, and the medium was removed by careful pipetting for both adherently grown and floating sphere GBM cultures. Afterward, formazan was dissolved in a mixture (24:1 v:v) of isopropanol and 1 M HCl using 100 µL for adherent cells by shaking the plates for at least 20 min. The absorbance of formazan (λ = 570 nm), and background (λ = 630 nm) was measured with a microplate reader (Tecan Spark, Tecan Deutschland GmbH, Crailsheim, Germany).

[5] = test system: primary neurons; assay: MTT cell viability assay, primary neurons; assay type: cell-based; conditions: Mus musculus, Primary neuron, read-out: Inhibitory concentration IC50
Procedure: (§3) NE-4C cells derived from the anterior brain vesicles of p53-deficient 9-day-old mouse embryos were maintained in Minimum Essential Medium (MEM; Sigma Aldrich, Taufkirchen, Germany) supplemented with 5% fetal calf serum (FCS; Invitrogen-Gibco, Carlsbad, CA, USA), 4 mM glutamine (Sigma-Aldrich, Taufkirchen, Germany) and 40 ug/mL gentamycin (Chinoin, Budapest, Hungary). For maintenance, subconfluent cultures were regularly split by trypsinization (0.05 w/v% trypsin in PBS) into poly-L-lysine-coated Petri dishes. Primary astrocytes were isolated from whole brains of neonatal (P0-P3) mice, as described earlier. In brief, meninges were removed, and the tissue pieces were subjected to enzymatic dissociation, using 0.05% w/v trypsin and 0.05% w/v DNase for 10 min at room temperature. The cells were plated onto poly-L-lysine coated plastic surfaces and grown in MEM supplemented with 10% fetal calf serum, 4 mM glutamine and 40 ug/mL gentamycin. Primary neuronal cultures were prepared from embryonic (E15–E16) mouse (CD1) forebrains, as described earlier. In brief, cell suspensions were prepared by mechanical dissociation over a nylon mesh with a pore diameter of 40–42 μm. The cells were seeded at 10^5 cells/cm^2 density onto PLL-coated surfaces. The cultures were maintained in MEM supplemented with 5% FCS, 4 mM glutamine, 40 µg/mL gentamicin and 2.5 μg/mL amphotericin B (Sigma). In co-culture experiments, U87 glioma cells were seeded onto established neuronal cultures at DIV3 in a 25,000 cell/cm^2 density.
as §2

[6] = test system: primary astrocytes; assay: MTT cell viability assay, primary astrocytes; assay type: cell-based; conditions: Mus musculus, Astrocyte, read-out: Inhibitory concentration IC50
Procedure: as §3, §2

[7] = test system: MZ-54 glioblastoma cells; assay: Annexin V/PI flow cytometry; assay type: cell-based, human; conditions: MZ-54 cells
Procedure: U251 und Mz54 glioblastoma cells (6 × 10^5 cells/mL, 0.5 mL/well) were seeded in 24-well plates. The next day, the cells were treated with 1, 2 or vehicle (DMSO) for 48 h. Prior to the measurement, the cells were harvested and stained using Annexin-V-APC (BD Biosciences, Heidelberg, Germany) and propidium iodide (PI, 0.05 mg/mL, Sigma-Aldrich, Taufkirchen, Germany). Cells were analyzed with BD Accuri C6 flow-cytometer (BD Biosciences), and data processing was performed using BD Accuri C6 software (BD Biosciences).
Figure 7 (A–D). Annexin V/PI flow cytometry of MZ–54 cells upon treatment with 1 or 2, mean + SEM; Brown–Forsythe ANOVA test with Dunnett’s T3 multiple comparison test (compared with DMSO control); * < 0.05; ** < 0.01; *** < 0.001; **** < 0.0001.

`CC1=C(/C=C/C(C)=C/C=C/C(C)=C/C(=O)O[C@@H]2C3=C(C)C4(CC4)[C@@](C)(O)C(=O)C3=CC2(C)C)C(C)(C)CCC1` [Compound 2, illudin M retinoate] gave an IC50 ([1]; 24 h exposure) of 1600 ± 400 nM, an IC50 ([1]; 48 h exposure) of 1200 ± 100 nM and an IC50 ([2]; 24 h exposure) of 2500 ± 600 nM. For the same molecule, the IC50 ([2]; 48 h exposure) was 80 ± 10 nM, the IC50 ([3]; HT-29, 24 h exposure) was 38000 ± 4000 nM and the IC50 ([3]; HT-29, 48 h exposure) was 4000 ± 1300 nM. The IC50 ([4]; U-251, U251, 48 h exposure) was 4510 ± 1300 nM, the IC50 ([5]; 24 h exposure) was 26000 ± 1000 nM and the IC50 ([5]; 48 h exposure) was 14000 ± 2000 nM. For the same molecule, the IC50 ([6]; 24 h exposure) was 45000 ± 2000 nM, the IC50 ([6]; 48 h exposure) was 33000 ± 4000 nM and the “cell death (Annexin V/PI)” value [7] was “dose- and time-dependent increase in cell death”.

In the case of `CC1=C2C(=CC(C)(C)[C@@H]2O)C(=O)[C@](C)(O)C12CC2` [Compound 1, illudin M], the IC50 ([1]; 24 h exposure) is reported as 3 ± 1 nM, the IC50 ([1]; 48 h exposure) is reported as 2 nM and the IC50 ([2]; 24 h exposure) is reported as 350 ± 130 nM. It also gave an IC50 ([2]; 48 h exposure) of 50 ± 10 nM, an IC50 ([3]; HT-29, 24 h exposure) of 1500 ± 600 nM and an IC50 ([3]; HT-29, 48 h exposure) of 60 ± 10 nM. It also gave an IC50 ([4]; U-251, U251, 24 h exposure) of 300 ± 50 nM, an IC50 ([4]; U-251, U251, 48 h exposure) of 120 ± 20 nM and an IC50 ([5]; 24 h exposure) of 600 ± 120 nM. The IC50 ([5]; 48 h exposure) was 190 ± 40 nM, the IC50 ([6]; 24 h exposure) was 1500 ± 400 nM and the IC50 ([6]; 48 h exposure) was 200 ± 30 nM. The “cell death (Annexin V/PI)” value [7] was “dose- and time-dependent increase in cell death”.
